{
  "source": "patent US20050271643A1",
  "about": "“Bacterial strains, compositions including same and probiotic use thereof” (priority 2003, published 2005)",
  "data": [
    {"system": "B. licheniformis PA", "test": "Antibiogram by disc diffusion method", "format": "cell-based, Bacillus licheniformis", "settings": "strain B. licheniformis PA", "values": [
      {"molecule": "C[C@H]1[C@H](NC(=O)/C(=N\\OC(C)(C)C(=O)O)c2csc(N)n2)C(=O)N1S(=O)(=O)O", "note": "[Aztreonam]", "Sensitivity or resistance of the strain to the antibiotic (in words)": "resistant"},
      {"molecule": "CC1(C)S[C@@H]2[C@H](NC(=O)Cc3ccccc3)C(=O)N2[C@H]1C(=O)O", "note": "[Benzylpenicillin]", "Sensitivity or resistance of the strain to the antibiotic (in words)": "resistant"},
      {"molecule": "CC(C)(O/N=C(\\C(=O)N[C@@H]1C(=O)N2C(C(=O)[O-])=C(C[n+]3ccccc3)CS[C@H]12)c1csc(N)n1)C(=O)O", "note": "[Ceftazidim]", "Sensitivity or resistance of the strain to the antibiotic (in words)": "resistant"},
      {"molecule": "Cc1onc(-c2ccccc2)c1C(=O)N[C@@H]1C(=O)N2[C@@H]1SC(C)(C)[C@@H]2C(=O)O", "note": "[Oxacillin]", "Sensitivity or resistance of the strain to the antibiotic (in words)": "resistant"},
      {"molecule": "Polymyxin E", "Sensitivity or resistance of the strain to the antibiotic (in words)": "resistant"}
    ]}
  ]
}
